From patent US20230146455A1, “TREATMENT OF INFLAMMATORY DISEASES WITH PEPTIDES AND PHARMACEUTICAL COMPOSITIONS” (Yuyu Pharma, Inc., priority 2020, published 2023)
Where “and” joins values, the source holds several entries; their conditions need not be identical. Identical values can stand only once. Where a SMILES comes first, the peptide text is derived from it. [ ]: non-standard residue; d: D form. Hyp = O=C(O)[C@@H]1C[C@@H](O)CN1

System: TIMP-1
Test: Example 9 Luminex, LPS hPBMCs: TIMP-1
Type: cell-based, human
Procedure: Treatment Human PBMCs were pretreated with YY-101, YDE-011 and YDE-043 or reference compound; Xiidra® at various concentration (ranging from 1 nM to 100 uM) for 2 h before stimulation. An equal volume of 0.5% DMSO was used as a vehicle control. Then, the cells were treated with LPS at 5 ug/ml. The supernatants from treated cells were harvested at 24 h and placed in a 96 well for Luminex cytokine & chemokine profiling using a Luminex 200 multiplex assay (Luminex; R&D system, USA).
The main study arm with triplicate wells per group in a 24-well plate: • 1. Blank • 2. PBMC: 0.5% DMSO • 3. PBMC+LPS (5 ug/ml) • 4. PBMC+YY-101 100 uM • 5. PBMC+YY-101 10 uM • 6. PBMC+YY-101 1 uM • 7. PBMC+YY-101 0.1 uM • 8. PBMC+YY-101 0.01 uM • 9. PBMC+LPS (5 ug/ml)+Xiidra®100 uM • 10. PBMC+LPS (5 ug/ml)+Xiidra® 10 uM • 11. PBMC+LPS (5 ug/ml)+Xiidra® 1 uM • 12. PBMC+LPS (5 ug/ml)+Xiidra®0.1 uM • 13. PBMC+LPS (5 ug/ml)+Xiidra®0.01 uM • 14. PBMC+LPS (5 ug/ml)+Xiidra®0.001 uM • 15. PBMC+LPS (5 ug/ml)+YY-101 100 uM • 16. PBMC+LPS (5 ug/ml)+YY-101 10 uM • 17. PBMC+LPS (5 ug/ml)+YY-101 1 uM • 18. PBMC+LPS (5 ug/ml)+YY-101 0.1 uM • 19. PBMC+LPS (5 ug/ml)+YY-101 0.01 uM • 20. PBMC+LPS (5 ug/ml)+YY-101 0.001 uM • 21. PBMC+LPS (5 ug/ml)+YDE-011 100 uM • 22. PBMC+LPS (5 ug/ml)+YDE-011 10 uM • 23. PBMC+LPS (5 ug/ml)+YDE-011 1 uM • 24. PBMC+LPS (5 ug/ml)+YDE-011 0.1 uM • 25. PBMC+LPS (5 ug/ml)+YDE-011 0.01 uM • 26. PBMC+LPS (5 ug/ml)+YDE-011 0.001 uM • 27. PBMC+LPS (5 ug/ml)+YDE-043 100 uM • 28. PBMC+LPS (5 ug/ml)+YDE-043 10 uM • 29. PBMC+LPS (5 ug/ml)+YDE-043 1 uM • 30. PBMC+LPS (5 ug/ml)+YDE-043 0.1 uM • 31. PBMC+LPS (5 ug/ml)+YDE-043 0.01 uM • 32. PBMC+LPS (5 ug/ml)+YDE-043 0.001 uM
Multiplex assay was used to measure 30 cytokines and chemokines. The 1:2, 1:10 and 1:200 diluted cell supernatant and serial dilution of the standard were dispensed into a 96 well plate at 50 ul/well. Then, the pre-mixed cocktail of antibody-coated magnetic beads was dispensed at 50 ul/well and incubated at room temperature for 2 h in a horizontal orbital microplate shaker at 800±500 rpm. The beads were washed using a magnetic device to prevent loss. The biotin-antibody was dispensed in 50 ul of each well and incubated at room temperature for 1 h in a shaker at 800±500 rpm. After washing, streptavidin-PE was added at 50 ul/well and incubated at room temperature for 30 min in a shaker under the same conditions. Finally, after washing, wash buffer (100 ul/well) was added to the plate and incubated in a shaker for 2 min. The Luminex™ 200 setting were set according to the manufacturer's protocol. The data was calculated with a standard five-parameter logistic nonlinear regression analysis of the data (xPonent software 4.2, USA). The levels of cytokine/chemokine are normalized to the live cell counts (1×10^5 cells/mL) and presented as concentrations per mL (pg/mL or ng/mL).

[1] = PBMC + LPS(5 ug/ml), test article 0.001 uM, Mean
[2] = PBMC + LPS(5 ug/ml), test article 0.001 uM, single replicates
[3] = PBMC + LPS(5 ug/ml), test article 0.01 uM, Mean
[4] = PBMC + LPS(5 ug/ml), test article 0.01 uM, single replicates
[5] = PBMC + LPS(5 ug/ml), test article 0.1 uM, Mean
[6] = PBMC + LPS(5 ug/ml), test article 0.1 uM, single replicates
[7] = PBMC + LPS(5 ug/ml), test article 1 uM, Mean
[8] = PBMC + LPS(5 ug/ml), test article 1 uM, single replicates
[9] = PBMC + LPS(5 ug/ml), test article 10 uM, Mean
[10] = PBMC + LPS(5 ug/ml), test article 10 uM, single replicates
[11] = PBMC + LPS(5 ug/ml), test article 100 uM, Mean
[12] = PBMC + LPS(5 ug/ml), test article 100 uM, single replicates
[13] = PBMC without LPS, test article 0.01 uM, Mean
[14] = PBMC without LPS, test article 0.01 uM, single replicates
[15] = PBMC without LPS, test article 0.1 uM, Mean
[16] = PBMC without LPS, test article 0.1 uM, single replicates
[17] = PBMC without LPS, test article 1 uM, Mean
[18] = PBMC without LPS, test article 1 uM, single replicates
[19] = PBMC without LPS, test article 10 uM, Mean
[20] = PBMC without LPS, test article 10 uM, single replicates
[21] = PBMC without LPS, test article 100 uM, Mean
[22] = PBMC without LPS, test article 100 uM, single replicates

## CC(C)C[C@H](NC(=O)CNC(=O)[C@H](CC(=O)O)NC(=O)[C@H](CCC(N)=O)NC(=O)CNC(=O)[C@@H]1C[C@@H](O)CN1)C(=O)N[C@@H](C)C(=O)NCC(=O)N1CCC[C@H]1C(=O)N[C@@H](CCCCN)C(=O)O [YY-101] (H-[Hyp]GQDGLAGPK-OH; N-terminus and C-terminus assumed)
[1]
  TIMP-1 Concentration: 2635.9 pg/mL
  TIMP-1 MFI: 1569.7
  TIMP-1 conc/live cell: 411.8 pg/10^5
[2]
  TIMP-1 Concentration: 2670.8 pg/mL and 2497.3 pg/mL and 2739.7 pg/mL
  TIMP-1 MFI: 1596.0 and 1464.5 and 1648.5
  TIMP-1 conc/live cell: 468.6 pg/10^5 and 351.7 pg/10^5 and 415.1 pg/10^5
[3]
  TIMP-1 Concentration: 2651.1 pg/mL
  TIMP-1 MFI: 1581.2
  TIMP-1 conc/live cell: 430.2 pg/10^5
[4]
  TIMP-1 Concentration: 2636.0 pg/mL and 2552.3 pg/mL and 2765.2 pg/mL
  TIMP-1 MFI: 1569.5 and 1506.0 and 1668.0
  TIMP-1 conc/live cell: 411.9 pg/10^5 and 425.4 pg/10^5 and 453.3 pg/10^5
[5]
  TIMP-1 Concentration: 2599.6 pg/mL
  TIMP-1 MFI: 1542.0
  TIMP-1 conc/live cell: 445.1 pg/10^5
[6]
  TIMP-1 Concentration: 2721.3 pg/mL and 2498.6 pg/mL and 2578.7 pg/mL
  TIMP-1 MFI: 1634.5 and 1465.5 and 1526.0
  TIMP-1 conc/live cell: 438.9 pg/10^5 and 480.5 pg/10^5 and 415.9 pg/10^5
[7]
  TIMP-1 Concentration: 2672.9 pg/mL
  TIMP-1 MFI: 1597.7
  TIMP-1 conc/live cell: 410.8 pg/10^5
[8]
  TIMP-1 Concentration: 2614.9 pg/mL and 2656.4 pg/mL and 2747.5 pg/mL
  TIMP-1 MFI: 1553.5 and 1585.0 and 1654.5
  TIMP-1 conc/live cell: 415.1 pg/10^5 and 374.1 pg/10^5 and 443.2 pg/10^5
[9]
  TIMP-1 Concentration: 2693.7 pg/mL
  TIMP-1 MFI: 1613.7
  TIMP-1 conc/live cell: 409.5 pg/10^5
[10]
  TIMP-1 Concentration: 2741.7 pg/mL and 2801.1 pg/mL and 2538.4 pg/mL
  TIMP-1 MFI: 1650.0 and 1695.5 and 1495.5
  TIMP-1 conc/live cell: 456.9 pg/10^5 and 437.7 pg/10^5 and 334.0 pg/10^5
[11]
  TIMP-1 Concentration: 3324.7 pg/mL
  TIMP-1 MFI: 2100.3
  TIMP-1 conc/live cell: 574.3 pg/10^5
[12]
  TIMP-1 Concentration: 3425.7 pg/mL and 3369.3 pg/mL and 3179.1 pg/mL
  TIMP-1 MFI: 2179.0 and 2135.0 and 1987.0
  TIMP-1 conc/live cell: 543.8 pg/10^5 and 543.4 pg/10^5 and 635.8 pg/10^5
[13]
  TIMP-1 Concentration: 5306.9 pg/mL
  TIMP-1 MFI: 3666.0
  TIMP-1 conc/live cell: 1065.2 pg/10^5
[14]
  TIMP-1 Concentration: 5042.4 pg/mL and 5571.4 pg/mL
  TIMP-1 MFI: 3456.0 and 3876.0
  TIMP-1 conc/live cell: 969.7 pg/10^5 and 1160.7 pg/10^5
[15]
  TIMP-1 Concentration: 4907.8 pg/mL
  TIMP-1 MFI: 3349.3
  TIMP-1 conc/live cell: 971.6 pg/10^5
[16]
  TIMP-1 Concentration: 4573.6 pg/mL and 5242.0 pg/mL
  TIMP-1 MFI: 3084.0 and 3614.5
  TIMP-1 conc/live cell: 1039.5 pg/10^5 and 903.8 pg/10^5
[17]
  TIMP-1 Concentration: 5121.4 pg/mL
  TIMP-1 MFI: 3518.8
  TIMP-1 conc/live cell: 931.2 pg/10^5
[18]
  TIMP-1 Concentration: 5155.8 pg/mL and 5087.1 pg/mL
  TIMP-1 MFI: 3546.0 and 3491.5
  TIMP-1 conc/live cell: 937.4 pg/10^5 and 924.9 pg/10^5
[19]
  TIMP-1 Concentration: 6576.7 pg/mL
  TIMP-1 MFI: 4666.8
  TIMP-1 conc/live cell: 1047.2 pg/10^5
[20]
  TIMP-1 Concentration: 8049.3 pg/mL and 5104.1 pg/mL
  TIMP-1 MFI: 5828.5 and 3505.0
  TIMP-1 conc/live cell: 1257.7 pg/10^5 and 836.7 pg/10^5
[21]
  TIMP-1 Concentration: 6554.3 pg/mL
  TIMP-1 MFI: 4654.3
  TIMP-1 conc/live cell: 982.4 pg/10^5
[22]
  TIMP-1 Concentration: 6886.9 pg/mL and 6221.7 pg/mL
  TIMP-1 MFI: 4917.0 and 4391.5
  TIMP-1 conc/live cell: 1076.1 pg/10^5 and 888.8 pg/10^5
